row,Compound,melting point [°C]
1,Cc1ccc2c(c1)Oc1sc(C)cc1C(N1CCN(C)CC1)=N2,149 to 150
2,CCC(=O)Nc1snc(N(CC)CC)c1C#N,188 to 189
3,Cc1ccc(S(=O)(=O)CCCc2c[nH]c([N+](=O)[O-])n2)cc1,108 to 111
4,CCOC(=O)N1Cc2[nH]c3ccc(F)cc3c2C1,248 to 249
5,Cc1nnc(-c2ccc3occ(-c4ccc(S(C)(=O)=O)c(Cl)c4)c3c2)o1,204 to 205
6,CCn1nc(Br)c([N+](=O)[O-])c1Br,119 to 121
7,Nc1nc(NC2CC2)c2ncn(/C=C3/CC3(CO)CO)c2n1,164 to 165
8,CNc1nc(N)nc2c1ncn2C1OC(CO)C(O)C1F (configuration not stated),172
9,COc1cc(-n2c(C#N)c3n(c2=O)CCCC3)c(F)cc1Cl,173 to 175
10,CC(C)(CO)CCCCCCCCCCCC(C)(C)CO,45 to 47
11,COc1cc2c(cc1Nc1ncc(Cl)c(N[C@@H]3CCCC[C@H]3NS(C)(=O)=O)n1)N(C)CCN(C[C@@H](O)C(F)(F)F)C2,63 to 66
12,CCCn1cc2c(C3C(=O)Nc4ccc(Br)cc43)nc(NCCCN3CCOCC3)nc2n1 (configuration not stated),298 to 303
13,COc1cc2c(cc1OC)-c1cc(N(c3c(C)cc(C)cc3C)C(C)C)nc(=O)n1CC2,182 to 183
14,Fc1cc(-c2cc(C(F)(F)F)n3ncc(-c4ccncc4)c3n2)ccc1C(F)(F)F,262
15,CCCCc1nc2ncccc2[nH]1,80
16,COc1noc2c1CN(C(C)=O)CC2,40 to 42
17,CC(=O)c1cnc(Cl)c(Cl)c1,80
18,CCC(=O)N[C@H]1CC[C@H](CCN2CCN(c3nccc4c3CCO4)CC2)CC1,192
19,Clc1ccc(-c2ccc(N3CCCN(c4ccc(-c5ccc(Cl)cc5)cn4)CC3)nc2)cc1,245 to 247
20,O=c1ccc(-c2ccc(OC3CCN(C4CCCC4)CC3)cc2)n[nH]1,211 to 213
21,CS(=O)(=O)c1ccc(C2=C(c3ccc(-c4ccsc4)cc3)C(=O)OC2)cc1,220 to 222
22,CC1(C)OC(=S)Nc2c(Br)cc(-c3cc(F)cc(C#N)c3)cc21,219 to 220
23,O=C(O)CCP(=O)(O)CCC(=O)O,156 to 159
24,C=C(OCCc1nc(C(C)C)c(Sc2cc(Cl)cc(Cl)c2)n1C)C12CC3CC(CC(C3)C1)C2,114 to 116
25,CCCCN(CC)c1nc(C)[nH]c2c(-c3ccc(Cl)cc3Cl)nc(C)c1-2,94 to 95
26,CCOC(=O)c1nc2n(n1)-c1ccc(Cl)cc1C(c1ccccc1)=NC2,137 to 138
27,Nc1nc(Cl)cc(OCC(O)CO)n1 (configuration not stated),175 to 177
28,CCS(=O)(=O)Cc1c(Cl)c(Cl)cc2nc(OC)c(OC)nc12,150 to 152
29,Cc1cc(C#N)sc1-c1ccc2c(c1)C(C)(C)OC(=S)N2,211 to 212
30,C=CCOc1nc(N(CC=C)CC=C)nc(N2CCc3ccccc3CC2)c1C#N,126 to 130

# Other lines, results leading:
row,melting point [°C],Compound
1,190 to 191,COCc1c(C(O)c2ccccc2)ncc2[nH]c3ccc(OCc4ccccc4)cc3c12 (configuration not stated)
2,76 to 78,COC(=O)NC(=NS(=O)(=O)NC(C)C)SCc1ccccc1
3,148 to 149,CCOC(=O)c1ccc(-n2nc(-c3ccccc3O)nc2-c2ccccc2O)cc1
4,119 to 120,CCOC(=O)c1cccc(-c2ccc(Cl)c3cc(CO)sc23)c1
5,125 to 126,CNC(=O)CC1CN=C(c2cc3cc(Oc4ccc(S(C)(=O)=O)cc4)cc(OC)c3[nH]2)S1 (configuration not stated)
6,202 to 205,O=C(NC(SC(=O)c1ccccc1)C(=O)N1CCCC1C(=O)O)c1ccccc1 (configuration not stated)
7,150 to 152,CCC(C)(C)c1ccc(OCC(=O)Nc2ccc(Nc3cccc(O)c3)cc2)c(C(C)(C)CC)c1
8,115 to 116,O=C(O)Cc1ccccc1OCc1ccc(OCc2csc(-c3ccccc3)n2)cc1
9,103 to 105,CC(=O)c1c(N(C)C)c(-c2ccccc2)n(Cc2ccccc2Cl)c1C
10,181 to 183,Cc1ccccc1COc1cccnc1NC(=S)Nc1ccc(Cl)cc1
11,81 to 82,CCCCOC(=O)Cc1nc(-c2ccc(F)cc2)oc1-c1ccsc1
12,232,COc1ccc(S(=O)(=O)N(CC(N)=O)c2ccc(F)cc2C(O)c2ccccc2Cl)cc1OC (configuration not stated)
13,98 to 99,Cn1c(=O)on(-c2ccccc2)c1=O
14,88 to 90,CCCCOC(=O)c1c(Cl)nc(CCCC)n1Cc1ccc2oc(-c3ccccc3-c3nnn[nH]3)c(Br)c2c1
15,146 to 148,COc1ccc(-c2cc(=S)n(C)c(=O)n2C)cc1OC
16,291,O=P(O)(O)COc1ccc2c(c1)[nH]c1ccccc12
17,135 to 136,CC(=O)N(c1ccccc1)c1ccccc1-c1ccc(I)cc1
18,126 to 128,COc1ccc(CS(=O)(=O)c2cc3ccc(O)cc3oc2=O)cc1[N+](=O)[O-]
19,177 to 178,NC(=O)C1=NN(c2cccc(COc3ccccc3)c2)C(c2ccccc2)N1 (configuration not stated)
20,109 to 110,Cc1ncn(-c2ccccc2C#N)n1
21,195 to 197,Brc1ccc2c(c1)C(c1ccncc1)=Cc1ccccc1O2

row,melting point [°C],Compound
1,75 to 77,CC1(COc2ccc(OCCN3CC(COc4ccccc4)OC3=O)cc2)OCCO1 (configuration not stated)
2,168 to 169,CC(C)(C)[Si](C)(C)Oc1ccccc1-c1cc(-c2ccc([N+](=O)[O-])cc2)c(C#N)c(N)n1
3,117 to 119,O=C(NC(Cc1c[nH]c2ccccc12)C(=O)O)C(S)Cc1ccccc1 (configuration not stated)
4,178 to 182,CCCCc1nc2c(N)nc3ccc(OCc4ccccc4)cc3c2n1CCCCNS(C)(=O)=O
5,94.7,COc1ccc(C(F)(F)F)cc1NC(=O)CCl
6,162,COc1nc(C)nc(N(C)C(=O)NS(=O)(=O)c2ccccc2OC(F)(F)F)n1
7,160 to 162,COC(=O)CCC(=O)c1ccc(N)cc1
8,106 to 108,COC(=O)c1ccccc1Nc1cccc(N2N=CN(C)N2)c1
9,70 to 72,O=C(OCCl)c1c(Cl)cccc1Cl
10,78,C=C(Cc1ccccc1)C(=O)NN1CCNCC1
11,273,Cc1nc(C)n(-c2cc(C)c3[nH]c(=O)ccc3c2)c1Br
12,220 to 223,CC1(C)CCC(C)(C)c2cc(C#Cc3ccc(C(N)=O)cc3)ccc21
13,93 to 95,Cc1cc(Nc2ccccc2C(=O)N2CCCCC2)ccn1
14,110,O=S(=O)(Cc1cc(F)cc(F)c1)NC1CN(C(c2ccc(Cl)cc2)c2cccnc2)C1 (racemic)
15,194 to 196,COCOc1cccc2c(=O)[nH]c(C3CCN(C)CC3)cc12
16,44 to 45,CCOC(=O)C(F)(F)C(I)c1ccc(OC)cc1 (configuration not stated)
17,115 to 116,COC(=O)/C=C/c1ccc(OC2Cc3ccccc3C2)cc1
18,190 to 191,COc1ccccc1-n1c(=O)[nH]c2c(C(N)=O)nc(Nc3cccc(O)c3)nc21
19,82 to 85,CCN1C(=O)CCCc2cc(Nc3ncc(Cl)c(Nc4ccccc4-n4cccn4)n3)c(OC)cc21
20,156 to 157,CCOC(=O)c1csc(/C=C/c2cn(-c3ccccc3)nc2OCc2ccc(OCc3nc(-c4ccco4)oc3C)c(OC)c2)n1
21,126,COc1cc(N)c(Cl)cc1C(=O)NC1CCN(CCCOc2ccc(F)cc2)CC1(F)F (configuration not stated)
